From the supplement of paper PMC12137928 come the findings set out here.

The subject of this test is HCT116. To be noted: 72 h. The method, boiled down: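 Each well of the 1536-well plates received 250 HCT116 cells, which attached over 5 h. Luminescence was measured with CellTiter-Glo, scaled with vehicle as 0% and positive control as -100%, and pattern-corrected. A four-parameter Hill fit yielded IC50 and maximal efficacy.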

SMILES strings stand for the structures. Counter-ions that a name gives are not always drawn.

Compound `CC(=O)OCC(=O)Nc1cc(C#N)cc(NC(=O)COC(C)=O)c1Cl` [Acreozast] showed an IC50 cell viability (ICRF193 0 nM) greater than 45.8 µM and an IC50 cell viability (ICRF193 200 nM) greater than 45.8 µM.

Consider `Cc1ccc(/C(=C\CN2CCCC2)c2cccc(/C=C/C(=O)O)n2)cc1` [Acrivastine], for which the IC50 cell viability is greater than 45.8 µM (ICRF193 0 nM) and greater than 45.8 µM (ICRF193 200 nM).

As for `COc1ccc(-c2ccc3cc(C(=O)O)ccc3c2)cc1C12CC3CC(CC(C3)C1)C2` [Adapalene], the IC50 cell viability is greater than 45.8 µM (ICRF193 0 nM) and greater than 45.8 µM (ICRF193 200 nM).

As for `Nc1[nH]cnc2ncnc1-2` [Adenine], the IC50 cell viability runs as follows: (ICRF193 0 nM) greater than 45.8 µM; (ICRF193 200 nM) greater than 45.8 µM.

For `Nc1ncnc2c1ncn2[C@@H]1O[C@H](CO)[C@@H](O)[C@H]1O` [Adenosine], the IC50 cell viability reads like this: (ICRF193 0 nM) greater than 45.8 µM; (ICRF193 200 nM) greater than 45.8 µM.

Turning to `O=S(O)CNc1ccc(S(=O)(=O)c2ccc(NCS(=O)O)cc2)cc1` [Adesulfone sodium], the IC50 cell viability was greater than 45.8 µM (ICRF193 0 nM) and greater than 45.8 µM (ICRF193 200 nM).

Consider `CN1CC(O)C2=C/C(=N/NC(N)=O)C(=O)C=C21` (centres undefined) [Adrenochrome semicarbazone], for which the IC50 cell viability was greater than 45.8 µM (ICRF193 0 nM) and greater than 45.8 µM (ICRF193 200 nM).

Consider `Cc1ccccc1-n1c(CF)nc2ccc(N)cc2c1=O` [Afloqualone], for which the IC50 cell viability (ICRF193 0 nM) is greater than 45.8 µM and the IC50 cell viability (ICRF193 200 nM) was greater than 45.8 µM.

In the case of `CCCCCCCCCCCCCCCCC(C(=O)O)C(O)(CC(=O)O)C(=O)O` (centres undefined) [Agaric acid], the IC50 cell viability runs as follows: (ICRF193 0 nM) greater than 45.8 µM; (ICRF193 200 nM) greater than 45.8 µM.

In the case of `COc1ccc2cccc(CCNC(C)=O)c2c1` [Agomelatine], the IC50 cell viability was greater than 45.8 µM (ICRF193 0 nM) and greater than 45.8 µM (ICRF193 200 nM).

Take `CC[C@H]1[C@@H]2C[C@H]3[C@@H]4N(C)c5ccccc5[C@]45C[C@@H]([C@@H]2[C@H]5O)N3[C@@H]1O` [Ajmaline]: the IC50 cell viability runs as follows: (ICRF193 0 nM) greater than 45.8 µM; (ICRF193 200 nM) greater than 45.8 µM.

In the case of `CC(=O)SC[C@@H](C)C(=O)N1CCC[C@H]1C(=O)N[C@@H](Cc1ccccc1)C(=O)O` [Alacepril], the IC50 cell viability runs as follows: (ICRF193 0 nM) greater than 45.8 µM; (ICRF193 200 nM) greater than 45.8 µM.

Take `C[C@H](N)C(=O)N[C@@H](C)C(=O)N[C@H]1[C@@H]2CN(c3nc4c(cc3F)c(=O)c(C(=O)O)cn4-c3ccc(F)cc3F)C[C@@H]21` [Alatrofloxacin mesylate]: the IC50 cell viability by setting is: (ICRF193 0 nM) greater than 45.8 µM; (ICRF193 200 nM) greater than 45.8 µM.

Turning to `C=CCOc1ccc(CC(=O)O)cc1Cl` [Alclofenac], the IC50 cell viability is, setting by setting: (ICRF193 0 nM) greater than 45.8 µM; (ICRF193 200 nM) greater than 45.8 µM.

On to `CCC(=O)OCC(=O)[C@@]1(OC(=O)CC)[C@H](C)C[C@H]2[C@H]3[C@H]([C@@H](O)C[C@@]21C)[C@@]1(C)C=CC(=O)C=C1C[C@H]3Cl` [Alclometasone dipropionate], for which the IC50 cell viability is greater than 45.8 µM (ICRF193 0 nM) and greater than 45.8 µM (ICRF193 200 nM).

On to `C=CC[N@@+]12CC[C@@]34c5ccccc5N5/C=C6/[C@H]7C[C@H]8[C@@]9(CC[N@@+]8(CC=C)C/C7=C/CO)c7ccccc7N(/C=C(/[C@@H](C[C@@H]31)/C(=C\CO)C2)[C@H]54)[C@@H]69` [Alcuronium chloride], for which the IC50 cell viability reads like this: (ICRF193 0 nM) greater than 45.8 µM; (ICRF193 200 nM) greater than 45.8 µM.

Consider `CCc1cc2c(cc1N1CCC(N3CCOCC3)CC1)C(C)(C)c1[nH]c3cc(C#N)ccc3c1C2=O` [Alectinib], for which the IC50 cell viability reads like this: (ICRF193 0 nM) greater than 45.8 µM; (ICRF193 200 nM) greater than 45.8 µM.

Take `COc1cc2nc(N(C)CCCNC(=O)C3CCCO3)nc(N)c2cc1OC` (centres undefined) [Alfuzosin hydrochloride]: the IC50 cell viability is, setting by setting: (ICRF193 0 nM) greater than 45.8 µM; (ICRF193 200 nM) greater than 45.8 µM.

For `Cc1ccccc1C(=O)N1CC/C(=N\OS(=O)(=O)O)c2ccc(Cl)cc21` [Alilusem potassium], the IC50 cell viability is, setting by setting: (ICRF193 0 nM) greater than 45.8 µM; (ICRF193 200 nM) greater than 45.8 µM.

In turn, `COCCCOc1cc(C[C@@H](C[C@H](N)[C@@H](O)C[C@H](C(=O)NCC(C)(C)C(N)=O)C(C)C)C(C)C)ccc1OC` [Aliskiren hemifumarate] yielded an IC50 cell viability (ICRF193 0 nM) greater than 45.8 µM and an IC50 cell viability (ICRF193 200 nM) greater than 45.8 µM.

For `NC(=O)NC1NC(=O)NC1=O` (centres undefined) [Allantoin], the IC50 cell viability reads like this: (ICRF193 0 nM) greater than 45.8 µM; (ICRF193 200 nM) greater than 45.8 µM.

As to `C=CCC1=C(C)C(OC(=O)C2C(C=C(C)C)C2(C)C)CC1=O` (centres undefined) [Allethrin], the IC50 cell viability is greater than 45.8 µM (ICRF193 0 nM) and greater than 45.8 µM (ICRF193 200 nM).

Consider `C=CCOc1cc(Cl)ccc1C(=O)NCCN(CC)CC` [Alloclamide], for which the IC50 cell viability runs as follows: (ICRF193 0 nM) greater than 45.8 µM; (ICRF193 200 nM) greater than 45.8 µM.

Turning to `Oc1ncnc2[nH]ncc12` [Allopurinol], the IC50 cell viability (ICRF193 0 nM) is greater than 45.8 µM and the IC50 cell viability (ICRF193 200 nM) was greater than 45.8 µM.

For the compound `C=CC[C@]1(O)CC[C@H]2[C@@H]3CCC4=CCCC[C@@H]4[C@H]3CC[C@@]21C` [Allylestrenol], the IC50 cell viability by setting is: (ICRF193 0 nM) greater than 45.8 µM; (ICRF193 200 nM) greater than 45.8 µM.

Consider `C=CCNC(N)=S` [Allylthiourea], for which the IC50 cell viability is greater than 45.8 µM (ICRF193 0 nM) and greater than 45.8 µM (ICRF193 200 nM).

Compound `CN(C)CCc1c[nH]c2ccc(CS(=O)(=O)N3CCCC3)cc12` [Almotriptan] displayed an IC50 cell viability (ICRF193 0 nM) greater than 45.8 µM and an IC50 cell viability (ICRF193 200 nM) greater than 45.8 µM.
